Results published in publication PMC13502167, “Ampyrone is a direct agonist of human tyrosinase and a potential therapeutic for hypopigmentation disorders” (JCI Insight, 2026).
Substitutions are numbered along the chain they refer to. pEC50, pIC50: −log10 of the molar value. Like-named read-outs stand apart in the source and are kept apart here.

Tests used:
[1] = molecular target: T1, human tyrosinase (hTYR^WT) (Homo sapiens, UniProt P14679); assay: biochemical
T1 construct: gene TYR
T1 sequence (P14679 19-469): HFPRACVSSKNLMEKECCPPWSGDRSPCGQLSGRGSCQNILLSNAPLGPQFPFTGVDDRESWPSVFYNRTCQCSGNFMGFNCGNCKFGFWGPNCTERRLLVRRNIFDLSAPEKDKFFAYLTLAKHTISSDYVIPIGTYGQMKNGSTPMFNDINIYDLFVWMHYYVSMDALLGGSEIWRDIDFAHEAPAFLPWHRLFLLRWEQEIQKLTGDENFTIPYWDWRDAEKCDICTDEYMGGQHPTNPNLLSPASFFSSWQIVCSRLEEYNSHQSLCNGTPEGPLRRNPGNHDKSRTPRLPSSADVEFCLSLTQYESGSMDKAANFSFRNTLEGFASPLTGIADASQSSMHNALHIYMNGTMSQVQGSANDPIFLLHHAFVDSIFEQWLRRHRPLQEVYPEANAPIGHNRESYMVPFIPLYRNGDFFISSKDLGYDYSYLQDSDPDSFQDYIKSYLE

[2] = molecular target: T2, human tyrosinase (hTYR^P406L) (Homo sapiens, UniProt P14679, P406L); assay: activation of diphenol oxidase and monophenolase activity of purified enzyme; assay type: biochemical
T2 construct: gene TYR; recombinant intramelanosomal domain, P406L variant, His-tag
T2 sequence (P14679 19-469 P406L): T1 sequence (P14679 19-469) with P388L

[3] = molecular target: T1, human tyrosinase (hTYR^WT); assay: activation of diphenol oxidase and monophenolase activity of purified enzyme; urea denaturation; assay type: biochemical

pIC50 ([1]; read-out: IC50)	SMILES	other results
5.04	O=c1cc(-c2ccc(O)c(O)c2)oc2ccccc12 [3’,4’-dihydroxyflavone]	
5.49	Oc1ccc(Nc2ccccc2)cc1 [4-anilinophenol]	
3.27	Nc1nc2nc[nH]c2c(=S)[nH]1 [6-thioguanine]	
	Cc1c(N)c(=O)n(-c2ccccc2)n1C [ampyrone, 4-Amino-2,3-dimethyl-1-phenyl-3-pyrazol-5-one]	pEC50 [2]: 2.45; pEC50 [3]: 3.17
5.84	COc1ccc(-c2cc(=S)ss2)cc1 [anethole trithione]	
5.09	CN(C)c1ccc(N=NS(=O)(=O)O)cc1 [fenaminosulf]	
	Oc1ccc(C2=Cc3ccc(O)cc3OC2)cc1 [idronoxil]	pIC50 [1]: 4.54
